B1: S100B protein (natural protein)
chain: MSELEKAMVALIDVFHQYSGREGDKHKLKKSELKELINNELSHFLEEIKEQEVVDKVMETLDNDGDGECDFQEFMAFVAMVTTACHEFFEHE

Legend:
S100B = biological target: T1, S100B (Homo sapiens, UniProt P04271); conditions: ref literature (citation numbers not shown in text); read-out: binding affinity K d; cited from earlier work
T1 construct: purchased Abbexa abx060130
T1 sequence (P04271 1-92): B1 chain
Source text: (§1) It interacts with S100B through a combination of hydrophobic and electrostatic interactions, stabilizing the protein structure and enhancing calcium-ion-binding affinity. […] By integrating TRTK12 into advanced optical biosensing systems, ...

other S100 proteins = conditions: unlike other peptides; ref literature (citation numbers not shown in text); cited from earlier work
Source text: as §1

[1] = biological target: fluorescently labeled peptide-nucleic acid (PNA) beacon with the peptide TRTK12 as the biorecognition element; assay: other fluorescence titration; beacon fixed at 500 nM, S100B 0-100 nM; donor (5-FAM) emission of the FAM/Dabcyl FRET beacon, excitation 499 nm; 50 mM Tris-HCl pH 7.0, 240 mM NaCl, 20 mM CaCl2; 35 °C; 60 min incubation; two-site binding model fitted to the calibration curve

Molecule | Kd (S100B) [nM] | cross-reactivity (other S100 proteins) | half-saturation constant of the high-affinity site (two-site binding model) [1] [nM] | half-saturation constant of the lower-affinity site (two-site binding model) [1] [nM]
TRTKIDWNKILS [TRTK12] | ~260 | minimal cross-reactivity with other S100 proteins | – | –
B1 | – | – | 0.145 | 364
